We go through 24 molecules from patent US9611263B2, “Compounds that modulate intracellular calcium” (CALCIMEDICA, INC., priority 2013, dated 2017).

Where two headings read alike, the source gives them in different places. Some results are limits rather than exact numbers.

In test [1] the test system is RBL-2H3 cells. Put plainly: Fluorescence-based assay of store-operated calcium entry in RBL-2H3 cells. It counts as cell-based, rat. As to conditions: for IC50: thapsigargin, 50% inhibition of Upslope, read-out: RBL-2H3 (IC50, μmol). Here is the method: B. Fluorescence-Based Assay of Store-Operated Calcium Entry in RBL-2H3 Cells.
RBL-2H3 cells are obtained from ATCC and maintained in complete medium with 10% FBS at 37° C./6% CO2.
The day prior to performing the assay, RBL-2H3 cells are plated in 50 μL of complete medium in a 384 well plate. Cells are grown at 37° C./6% CO2 overnight and grow to 50-60% confluence by the next day. On the assay day, 1.5 μM Fluo-4-AM dye (Invitrogen) in complete medium is added and incubated for 1 hour at RT. Cells are washed twice in Ca^2+-free HBSS buffer and 35 μL Ca^2+-free HBSS buffer is added to each well. 10 μL of a test compound prepared in a Ca^2+-free HBSS solution at 4.5× of the desired concentration is added to a well and incubated for 5 minutes at RT. 10 μL of thapsigargin prepared in a Ca^2+-free HBSS solution at 5.5× of the desired concentration (5.5 uM) is added to each well and incubated for an additional 25 minutes. The initial baseline fluorescence signal is measured with a FLIPR^384 (Molecular Devices) plate reader. 5 μL of 12× calcium in HBSS (12 mM) is added and changes in cellular fluorescence are measured with the FLIPR^384 plate reader. In each well, the change in the fluorescent signal as a function of time due to calcium entry into the cell is determined by calculating the difference between the fluorescent signal measured 7 seconds after calcium addition and the initial baseline fluorescence signal at time zero (t=0). This parameter is designated Upslope. The IC50 value is calculated as the concentration at which 50% of the Upslope is inhibited.

Test [2] concerns the target T1, Orai1/STIM1 (Homo sapiens, UniProt Q96D31).
T1 construct: expressed in transfected cells
Put plainly: Fluorescence-based assay of store-operated calcium entry in Orai1/STIM1 stable cells. As to conditions: for IC50: HEK-293 cells stably expressing human STIM1 and Orai1, 50% inhibition of Peak-Basal fluorescence signal, read-out: Orai1/STIM1 (IC50, μmol). The test is classed as cell-based. On the procedure:
A. Fluorescence-Based Assay of Store-Operated Calcium Entry in Orai1/STIM1 Stable Cells.
Cells stably expressing recombinant human STIM1 and Orai1 are generated by transfecting a human Orai1 expression plasmid (pcDNA3.1-Orai1-cmyc) into HEK-293 cells stably overexpressing human STIM1 (Roos et al. 2005 JCB 169(3): 435-445). Colonies of cells stably expressing both STIM1 and Orai1 proteins are selected and then subcloned by limiting dilution. Cells were cultured at 37° C./6% CO2 in complete medium with 10% FBS and appropriate selection markers.
The day prior to performing the assay Orai1/STIM1 stable cells are plated in 50 μL of complete medium at 90-95% confluence in a 384 well plate. Cells are grown at 37° C./6% CO2 overnight. On the day of the assay, 1.5 μM fluo-4-AM (Invitrogen) in complete medium is added to the cells, which are then incubated for 1 hour at RT. Cells are washed once in Ca^2+-free HBSS (Hank's buffered saline solution) and 35 μl of Ca^2+-free HBSS is added to each well. Test compounds are added to wells in a 10 μL Ca^2+-free HBSS solution, prepared at 4.5× the desired final concentration, and incubated for 30 minutes at RT. The initial baseline fluorescence signal is then measured with a FLIPR^384 (Molecular Devices) plate reader. Calcium entry is initiated by adding 5 μl of 10× CaCl2 (10 mM) in HBSS, and changes in cellular fluorescence are measured with the FLIPR^384 plate reader. In each well, the magnitude of the fluorescence signal as a result of calcium entry into the cell is determined by calculating the difference between the peak fluorescence signal measured after calcium addition and the initial baseline fluorescence signal (designated Peak-Basal). IC50 values are typically calculated as the concentration that inhibited 50% of the Peak-Basal signal.

T1 sequence (Q96D31 whole entry): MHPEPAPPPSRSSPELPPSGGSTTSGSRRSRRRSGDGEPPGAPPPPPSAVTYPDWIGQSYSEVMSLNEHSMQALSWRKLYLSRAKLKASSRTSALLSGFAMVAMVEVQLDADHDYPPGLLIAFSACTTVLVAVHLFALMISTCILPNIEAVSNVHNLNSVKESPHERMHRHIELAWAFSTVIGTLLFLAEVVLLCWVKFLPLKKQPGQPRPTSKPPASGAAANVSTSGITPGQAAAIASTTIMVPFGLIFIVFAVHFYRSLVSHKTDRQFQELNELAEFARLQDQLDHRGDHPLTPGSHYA

In the case of `CCc1nn(-c2nccs2)cc1-c1ccc(NC(=O)c2c(F)cccc2F)cc1F` [Example 31, N-(4-(3-ethyl-1-(thiazol-2-yl)-1H-pyrazol-4-yl)-3-fluorophenyl)-2,6-difluorobenzamide], the IC50 in test [1] (Rattus norvegicus, RBL-2H3) is < 600 nM; in test [2] it was < 600 nM.
For `Cc1cnc(-n2cc(-c3ccc(NC(=O)c4c(F)cccc4F)nc3)c(C)n2)s1` [Example 63, 2,6-difluoro-N-(5-(3-methyl-1-(5-methylthiazol-2-yl)-1H-pyrazol-4-yl)pyridin-2-yl)benzamide], the RBL-2H3 efficacy in test [1] (given in place of a class) is recorded as <50%. In addition, the Orai1/STIM1 efficacy in test [2] (given in place of a class) is <50%.
For `O=C(Nc1ccc(-c2cn(-c3nccs3)nc2C(F)(F)F)cn1)c1c(F)cccc1F` [Example 52, 2,6-difluoro-N-(5-(1-(thiazol-2-yl)-3-(trifluoromethyl)-1H-pyrazol-4-yl)pyridin-2-yl)benzamide], the IC50 in test [1] (Rattus norvegicus, RBL-2H3) is < 600 nM; in test [2], < 600 nM.
Consider “N-(4-(3-ethyl-1-(thiazol-2-yl)-1H-pyrazol-4-yl)phenyl)-2,3,6-trifluorobenzamide [Example 9]”, for which the IC50 in test [1] was < 600 nM; in test [2] it was 600 to 1200 nM.
`Cc1nn(-c2nccs2)cc1-c1ccc(NC(=O)c2cc(F)nc(F)c2)nc1` [Example 23, 2,6-difluoro-N-(5-(3-methyl-1-(thiazol-2-yl)-1H-pyrazol-4-yl)pyridin-2-yl)isonicotinamide]: the IC50 was < 600 nM in test [1] (Rattus norvegicus, RBL-2H3) and < 600 nM in test [2].
Consider `O=C(Nc1ccc(-c2cn(-c3nccs3)nc2C(F)(F)F)cn1)c1c(F)ccc(F)c1F` [Example 53, 2,3,6-trifluoro-N-(5-(1-(thiazol-2-yl)-3-(trifluoromethyl)-1H-pyrazol-4-yl)pyridin-2-yl)benzamide], for which the IC50 in test [1] (Rattus norvegicus, RBL-2H3) was < 600 nM; in test [2], 600 to 1200 nM.
Turning to `Cc1nn(-c2nccs2)cc1-c1ccc(NC(=O)c2c(F)cccc2F)s1` [Example 69, 2,6-difluoro-N-(5-(3-methyl-1-(thiazol-2-yl)-1H-pyrazol-4-yl)thiophen-2-yl)benzamide], the IC50 is < 600 nM in test [1] (Rattus norvegicus, RBL-2H3) and < 600 nM in test [2].
With `CCc1nn(-c2nccs2)cc1-c1ccc(NC(=O)c2c(F)ccc(F)c2F)cc1F` [Example 32, N-(4-(3-ethyl-1-(thiazol-2-yl)-1H-pyrazol-4-yl)-3-fluorophenyl)-2,3,6-trifluorobenzamide], the IC50 in test [1] (Rattus norvegicus, RBL-2H3) was < 600 nM; in test [2] it was > 1200 nM.
For `CCc1nn(-c2nccs2)cc1-c1ccc(NC(=O)c2c(C)cccc2F)cc1` [Example 8, N-(4-(3-ethyl-1-(thiazol-2-yl)-1H-pyrazol-4-yl)phenyl)-2-fluoro-6-methylbenzamide], in that order: < 600 nM and 600 to 1200 nM.
The like results for `Cc1cccc(F)c1C(=O)Nc1ccc(-c2cn(-c3nccs3)nc2C)s1` [Example 71, 2-fluoro-6-methyl-N-(5-(3-methyl-1-(thiazol-2-yl)-1H-pyrazol-4-yl)thiophen-2-yl)benzamide] were, in that order, < 600 nM and 600 to 1200 nM.
The like results for `O=C(Nc1ccc(-c2cn(-c3nccs3)nc2C2CC2)c(F)c1)c1c(F)cccc1F` [Example 41, N-(4-(3-cyclopropyl-1-(thiazol-2-yl)-1H-pyrazol-4-yl)-3-fluorophenyl)-2,6-difluorobenzamide] were, in that order, < 600 nM and > 1200 nM.
Take `Cc1nn(-c2nccs2)cc1-c1ccc(NC(=O)c2ccccc2F)cc1` [Example 2, 2-fluoro-N-(4-(3-methyl-1-(thiazol-2-yl)-1H-pyrazol-4-yl)phenyl)benzamide]: the IC50 in test [1] (Rattus norvegicus, RBL-2H3) was < 600 nM; in test [2], < 600 nM.
Consider `Cc1ccc(F)c(C(=O)Nc2ccc(-c3cn(-c4ccccc4F)nc3C)cn2)c1F` [Example 60, 2,6-difluoro-N-(5-(1-(2-fluorophenyl)-3-methyl-1H-pyrazol-4-yl)pyridin-2-yl)-3-methylbenzamide], for which the IC50 in test [1] (Rattus norvegicus, RBL-2H3) was < 600 nM; in test [2], < 600 nM.
For the molecule `O=C(Nc1cnc(-c2cn(-c3nccs3)nc2C2CC2)cn1)c1c(F)cc(F)cc1F` [Example 49, N-(5-(3-cyclopropyl-1-(thiazol-2-yl)-1H-pyrazol-4-yl)pyrazin-2-yl)-2,4,6-trifluorobenzamide], the IC50 in test [1] (Rattus norvegicus, RBL-2H3) was < 600 nM; in test [2], 600 to 1200 nM.
For `CCc1nn(-c2nccs2)cc1-c1ccc(NC(=O)c2ccccc2F)cc1` [Example 7, N-(4-(3-ethyl-1-(thiazol-2-yl)-1H-pyrazol-4-yl)phenyl)-2-fluorobenzamide], in that order: < 600 nM and < 600 nM.
For `N#Cc1nn(-c2cc(F)ccc2F)cc1-c1ccc(NC(=O)c2c(F)cccc2F)nc1` [Example 62, N-(5-(3-cyano-1-(2,5-difluorophenyl)-1H-pyrazol-4-yl)pyridin-2-yl)-2,6-difluorobenzamide], in that order: < 600 nM and 600 to 1200 nM.
The like results for `CCc1nn(-c2nccs2)cc1-c1nnc(NC(=O)c2c(F)ccc(F)c2F)s1` [Example 68, N-(5-(3-ethyl-1-(thiazol-2-yl)-1H-pyrazol-4-yl)-1,3,4-thiadiazol-2-yl)-2,3,6-trifluorobenzamide] were, in that order, < 600 nM and 600 to 1200 nM.
For `Cc1nn(-c2ccccc2F)cc1-c1ccc(NC(=O)c2ccccc2F)nc1` [Example 58, 2-fluoro-N-(5-(1-(2-fluorophenyl)-3-methyl-1H-pyrazol-4-yl)pyridin-2-yl)benzamide], the IC50 is > 1200 nM in test [1] (Rattus norvegicus, RBL-2H3) and 600 to 1200 nM in test [2].
For `Cc1ccc(F)c(C(=O)Nc2cnc(-c3cn(-c4nccs4)nc3C)cn2)c1F` [Example 30, 2,6-difluoro-3-methyl-N-(5-(3-methyl-1-(thiazol-2-yl)-1H-pyrazol-4-yl)pyrazin-2-yl)benzamide], in that order: < 600 nM and 600 to 1200 nM.
For `CCc1nn(-c2nccs2)cc1-c1ccc(NC(=O)c2c(F)cccc2F)nc1` [Example 35, N-(5-(3-ethyl-1-(thiazol-2-yl)-1H-pyrazol-4-yl)pyridin-2-yl)-2,6-difluorobenzamide], in that order: < 600 nM and < 600 nM.
For `Cc1cccc(F)c1C(=O)Nc1ccc(-c2cn(-c3nccs3)nc2C)cn1` [Example 19, 2-fluoro-6-methyl-N-(5-(3-methyl-1-(thiazol-2-yl)-1H-pyrazol-4-yl)pyridin-2-yl)benzamide], in that order: < 600 nM and < 600 nM.
Take `CCc1nn(-c2nccs2)cc1-c1ccc(NC(=O)c2c(F)ccc(F)c2F)nc1` [Example 36, N-(5-(3-ethyl-1-(thiazol-2-yl)-1H-pyrazol-4-yl)pyridin-2-yl)-2,3,6-trifluorobenzamide]: the IC50 in test [1] (Rattus norvegicus, RBL-2H3) was < 600 nM; in test [2], < 600 nM.
In the case of `O=C(Nc1ccc(-c2cn(-c3nccs3)nc2C2CC2)cn1)c1c(F)cc(F)cc1F` [Example 46, N-(5-(3-cyclopropyl-1-(thiazol-2-yl)-1H-pyrazol-4-yl)pyridin-2-yl)-2,4,6-trifluorobenzamide], the IC50 in test [1] (Rattus norvegicus, RBL-2H3) is < 600 nM; in test [2] it was 600 to 1200 nM.
Consider `O=C(Nc1cnc(-c2cn(-c3nccs3)nc2C2CC2)cn1)c1c(F)ccc(F)c1F` [Example 48, N-(5-(3-cyclopropyl-1-(thiazol-2-yl)-1H-pyrazol-4-yl)pyrazin-2-yl)-2,3,6-trifluorobenzamide], for which the IC50 in test [1] (Rattus norvegicus, RBL-2H3) is < 600 nM; in test [2], > 1200 nM.
